Test results: paper PMC11397358, “Cytotoxic Activity of Novel GnRH Analogs Conjugated with Mitoxantrone in Ovarian Cancer Cells” (Molecules, 2024)

Columns and labels:
SKOV-3 cells [1] = assay: Confocal microscopy of intracellular mitoxantrone fluorescence, quantified with Image J; assay type: cell-based, human; conditions: 6 h; for localization of mitoxantrone fluorescence, in words: 1 μM, Hoechst nuclear stain; for effect of cisplatin on intracellular accumulation of mitoxantrone, in words: 1 μΜ, cisplatin 30 μg/mL for 1 h before treatment
Text: To determine the accumulation of mitoxantrone within the SKOV-3 cells, we used confocal microscopy, exploiting the ability of mitoxantrone to fluoresce. Specifically, the excitation maxima of mitoxantrone are at 610 and 660 nm, whereas its emission maximum is at 685 nm. To stain the nuclei, we used the Hoechst dye. […] In contrast, the fluorescence signal was absent in untreated cells.
(§1) Figure 9 Confocal microscopy images of SKOV-3 cells treated with or without the GnRH-mitoxantrone conjugates, Con-3, Con-7 or mitoxantrone at a concentration of 1 μΜ for 6 h at 37 °C. At the end of the incubation, the cell nuclei were stained with the DNA-staining Hoechst 33342 dye and confocal fluorescent images were obtained after sequential excitation at 350 nm (for the Hoechst dye) and 638 nm (for the mitoxantrone). The emission filters of 461 nm and 650 nm–700 nm were used for collecting blue (Hoechst dye) and red (mitoxantrone) signals in separate channels. The left images show the nuclei staining with Hoechst dye (blue), whereas the middle ones depict the mitoxantrone fluorescence (red). The right images were created by merging the […] and middle ones and depict the localization of mitoxantrone (red) in both the cytoplasm and the nuclei. The figures are shown from a representative experiment performed three times with similar results.
We hypothesized that the GnRH-conjugated mitoxantrone of Con-3 and Con-7 entered the SKOV-3 cells after the reduction in the disulfide bond linking the GnRH analogs with mitoxantrone and subsequent release of the latter from the conjugates. This chemical reaction could be accomplished by the thioredoxin system, which is overexpressed in cancer cells and reduces the disulfide bonds of proteins and peptides. To verify this hypothesis, we incubated the SKOV-3 cells with cisplatin at a concentration of 30 μg/mL for 1 h before treating them with Con-3 or Con-7 conjugates. Cisplatin is a potent inhibitor of the thioredoxin system.
as §1, with “Figure 10” for “Figure 9”, “with” for “with or without”, “conjugates, Con-3 or” for “conjugates, Con-3,”, “Con-7 (1” for “Con-7 or mitoxantrone at a concentration of 1”, “6 h)” for “6 h”, “37 °C, in the presence or absence of cisplatin. Cisplatin was added to the cells 1 h before their incubation with the GnRH-mitoxantrone conjugates.” for “37 °C.”
Figure 11 Confocal microscopy images of SKOV-3 cells treated with mitoxantrone (1 μΜ for 6 h) at 37 °C, in the presence or absence of cisplatin. Cisplatin was added to the cells 1 h before their incubation with mitoxantrone. At the end of the incubation, the cell nuclei were stained with the DNA-staining Hoechst 33342 dye and confocal fluorescent images were obtained after sequential excitation at 350 nm (for the Hoechst dye) and 638 nm (for the mitoxantrone). The emission filters of 461 nm and 650 nm–700 nm were used for collecting blue (Hoechst dye) and red (mitoxantrone) signals in separate channels. The left images show the nuclei staining with Hoechst dye (blue), whereas the middle ones depict the mitoxantrone fluorescence (red). […]

SKOV-3 cells [2] = assay: TMRE-based detection of mitochondrial membrane potential (ΔΨm); assay type: cell-based, human; conditions: 1 μM, 72 h, fresh compound every 24 h; three independent experiments; p < 0.01 vs untreated
Text: The apoptosis of SKOV3 cells by Con-3, Con-7 and mitoxantrone was further validated in a mitochondrial membrane potential (ΔΨm) assay, which utilizes the cell-permeable, cationic dye, tetramethylrhodamine ethyl ester (TMRE) to detect the ΔΨm. TMRE accumulates in healthy mitochondria with polarized membrane, but not in the mitochondria of apoptotic cells. Mitochondrial permeabilization and the loss of the mitochondrial transmembrane potential are associated with cell apoptosis and a drop in fluorescence of TMRE [40].
Figure 8 TMRE-based detection of mitochondrial membrane potential (ΔΨm) of SKOV-3 cells. The change in ΔΨm was detected using TMRE after treatment of SKOV3 cells with 1μM Con-3, Con-7 or mitoxantrone for 72 h. The TMRE fluorescence intensities are represented as histogram bars for results obtained in three independent experiments. […] The data are expressed as the mean ± SEM.
The reduced mitochondrial membrane potential (ΔΨm) that accompanies apoptosis was detected using the fluorescent dye, tetramethylrhodamine ethyl ester (TMRE) (Ex/Em: 530/580 nm), (Cayman, TMRE Mitochondrial Membrane Potential Assay Kit, Item No. 701310). SKOV-3 cells were grown on 60 mm tissue culture dishes to achieve ca. 60% confluence. Monolayers of these cells were treated for a total of 72 h using RPMI 1640 containing 1 μM each of Con-3, Con-7 or mitoxantrone. At the end of each consecutive 24 h treatment period, the test solutions were removed and replaced with new media containing fresh test compounds. After 72 h TMRE was added to each dish to a final concentration of 5 μM. After a 30 min exposure to TMRE, the media was removed so that the cell monolayers could be dispersed using 0.25% trypsin-EDTA. The resultant cell suspensions were subjected to centrifugation and repeated resuspension in a standard extracellular salt solution (SES). […] The TMRE fluorescence intensities monitored from the individual wells were measured using a Flexstation 3 microplate reader (Molecular Devices, Sunnyvale, CA, USA).

| Compound | localization of mitoxantrone fluorescence, in words (SKOV-3 cells [1]) | effect of cisplatin on intracellular accumulation of mitoxantrone, in words (SKOV-3 cells [1]) | TMRE accumulation / fluorescence (mitochondrial membrane potential), in words (SKOV-3 cells [2]) |
| --- | --- | --- | --- |
| CCNC(=O)[C@@H]1CCCN1C(=O)[C@H](CCCNC(=N)N)NC(=O)[C@H](CC(C)C)NC(=O)[C@@H](CCCCNC(=O)CCCCCNC(=O)CCSSCC(=O)OCCNCCNc1ccc(NCCNCCO)c2c1C(=O)c1c(O)ccc(O)c1C2=O)NC(=O)[C@H](Cc1ccc(O)cc1)NC(=O)[C@H](CO)NC(=O)[C@H](Cc1c[nH]c2ccccc12)NC(=O)[C@H](Cc1c[nH]cn1)NC(=O)[C@@H]1CCC(=O)N1 [Con-7] | detected in both the cytoplasm and nucleus | abolished the accumulation of mitoxantrone | significantly reduced the accumulation of the TMRE |
| CCNC(=O)[C@@H]1CCCN1C(=O)[C@H](CCCNC(=N)N)NC(=O)[C@H](CC(C)C)NC(=O)[C@@H](CSSCCC(=O)OCCNCCNc1ccc(NCCNCCO)c2c1C(=O)c1c(O)ccc(O)c1C2=O)NC(=O)[C@H](Cc1ccc(O)cc1)NC(=O)[C@H](CO)NC(=O)[C@H](Cc1c[nH]c2ccccc12)NC(=O)[C@H](Cc1c[nH]cn1)NC(=O)[C@@H]1CCC(=O)N1 [Con-3] | detected in both the cytoplasm and nucleus | abolished the accumulation of mitoxantrone | significantly reduced the accumulation of the TMRE |
| O=C1c2c(O)ccc(O)c2C(=O)c2c(NCCNCCO)ccc(NCCNCCO)c21 [mitoxantrone] | detected in both the cytoplasm and nucleus | did not affect the intracellular accumulation | significantly reduced the accumulation of the TMRE |
